The record followed here is patent US9023987B2, “Cell-permeable peptide” (Seoul National University R&DB Foundation, priority 2010, dated 2015).

Series [1] concerns human mesenchymal stem cells (hMSC). Kind of series: Cell permeability by fluorescence imaging (confocal scanning microscope). Format: cell-based. The note with it: FITC/fluorescence-labeled, FIG. 3A, FIG. 7. The procedure:
The domains synthesized in Example 1 and Comparative Examples 1 and 2 were labeled with a fluorescent material in order to measure cell permeability. 10 equivalents of fluorescein isothiocyanate (FITC) was bound to N-terminals of the synthesized domains by using triethylamine (1 ml per 1 g of resin). The synthesis of the peptide was confirmed by measuring the molecular weight thereof through MALDI-TOF.
In order to measure the cell permeability of the cell permeable peptide-bone differentiation inducing sequence conjugate, after sterile slide glass was input in a 6-well plate and 2×10^4 human mesenchymal stem cells (hMSC) were plated in each well, the cells were cultured in a general medium for 20 hours (overnight incubation). Then the cells was cultured in an hMSC basal medium (MSCBM, LONZA, USA) containing 0.5% fetal bovine serum (FBS, GIBCO, USA) for 20 hours (overnight starvation). […] fluorescence labeled cell permeable peptide-bone differentiation inducing sequence conjugate and […] fluorescence labeled bone differentiation inducing sequence that were obtained by binding FITC (SIGMA, USA) N-terminals of the cell permeable peptide-bone differentiation inducing sequence conjugate synthesized by the method in Example 1 and the domain in Comparative Example 2 to synthesize the fluorescence label conjugate and fluorescence label domain, followed by isolation and purification, were injected into each well and washed with phosphate buffer solution (PBS) two times after 20 minutes and 80 minutes of injection. The resultants was observed using a confocal scanning microscope (IX 70, Olympus Co., Tokyo, Japan).

For series [2] the test system is unchanged. Kind of series: Cytotoxicity by MTT assay. The arrangement: dose or concentration left out as unconfirmed. Format: cell-based. The note with it: 24, 48, and 72 hours, FIG. 5. On the procedure: In order to confirm whether or not cell proliferation is affected by potential toxicity when the cell permeable peptide-bone differentiation inducing sequence conjugate and control domains are cultured with hMSC, a 3-[4,5-dimethylthiazo-2-yl]-2,5-diphenyl tetrazolium bromide thiazolyl blue (MTT) assay method was used.
The MTT assay method is a method for measuring cytotoxicity by measuring absorbance of formazan produced as mitochondrial dehydrogenases in alive and metabolically active cells reduces MTT to indicate the absorbance as a percentage based on the control group. In this case, the measured absorbance reflects a concentration of the alive and metabolically active cells. 2,3,5-triphenyl tetrazolium chloride (TTC) is reduced to formazan in live cells. The formazan is insoluble purple color, and a respiration rate may be measured by a degree of color. The absorbance of formazan is maximal at 540 nm, and the absorbance measured at this wavelength reflects the concentration of the alive and metabolically active cells. Since a linear relationship between the absorbance and the concentration of the cells is not established when a concentration of cells in well to be measured is excessively high or low, a process of determining an optimal concentration of the cells was performed. […]
(In general: Tetrazolium assays rely on reduction of a dye to a coloured formazan, in cell work by metabolically active cells.)

Series [3] has the same test system. Kind of series: Cytotoxicity / cell proliferation by quantitative BrdU assay. The format is cell-based. The arrangement: dose or concentration left out as unconfirmed. The note with it: 24, 48, and 72 hours, FIG. 6. The procedure: In order to confirm whether or not cell proliferation is affected by potential toxicity when the cell permeable peptide-bone differentiation inducing sequence conjugate and control domains are cultured with hMSC, a degree of cell proliferation was analysis by ELISA using BrdU. Since BrdU was introduced in chromosome instead of deoxy thymidine triphosphate (dTTP) at the time of DNA replication during a proliferation process of hMSC, a degree of introduction of BrdU may reflect a degree of proliferation of hMSC.
First, After 1×10^3 human Mesenchymal Stem cells (hMSC) were plated into each well of 96-well plate, the degree of introduction of BrdU, that is, the degree of proliferation of hMSC was measured using a cell proliferation ELISA kit (BrdU (colorimetry); Boehringermanheim, Germany). Simply describing this method, the cells were treated with the cell permeable peptide-bone differentiation inducing sequence conjugate synthesized by the method in Example 1 and the domains of Example 2 at a concentration of […] and cultured in medium for forming hard tissue for 24, 48, and 72 hours. […] of BrdU (5-bromo-2′-deoxyuridine) was added to each of the groups before 24 hours of each culture time and further cultured for 24 hours. […] The reaction was terminated by 1N H2SO4, and then absorbance was measured using the ELISA reader (Bio-Tek, USA) at 450 nm.
On the technique in general: Incorporation of labelled thymidine or its analogues reports DNA synthesis.

The target of series [4] is T1, human-derived Smurf1 protein (Homo sapiens, UniProt Q9HCE7).
T1 construct: purchased Origene Technologies (Rockville, Md., USA)
T1 sequence (Q9HCE7 whole entry): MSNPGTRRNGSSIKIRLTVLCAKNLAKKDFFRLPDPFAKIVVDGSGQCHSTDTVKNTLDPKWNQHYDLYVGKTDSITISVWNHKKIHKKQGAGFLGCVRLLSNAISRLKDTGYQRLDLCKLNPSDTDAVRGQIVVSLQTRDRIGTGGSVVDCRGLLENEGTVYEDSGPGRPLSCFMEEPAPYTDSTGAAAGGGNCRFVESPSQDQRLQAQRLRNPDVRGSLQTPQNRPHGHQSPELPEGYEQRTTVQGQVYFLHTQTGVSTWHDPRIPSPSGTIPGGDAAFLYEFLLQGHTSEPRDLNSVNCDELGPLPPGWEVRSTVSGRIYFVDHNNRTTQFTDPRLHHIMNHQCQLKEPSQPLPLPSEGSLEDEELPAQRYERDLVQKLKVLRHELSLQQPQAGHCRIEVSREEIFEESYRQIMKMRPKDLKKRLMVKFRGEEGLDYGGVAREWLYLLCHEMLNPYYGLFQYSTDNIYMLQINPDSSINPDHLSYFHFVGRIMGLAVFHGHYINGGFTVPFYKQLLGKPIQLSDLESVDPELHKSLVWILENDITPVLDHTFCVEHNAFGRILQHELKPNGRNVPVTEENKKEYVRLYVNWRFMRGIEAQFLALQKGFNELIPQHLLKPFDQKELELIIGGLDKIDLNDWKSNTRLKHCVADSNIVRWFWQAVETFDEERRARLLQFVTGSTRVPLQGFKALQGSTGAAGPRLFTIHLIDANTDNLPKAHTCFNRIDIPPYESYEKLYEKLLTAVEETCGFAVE
Kind of series: Affinity to Smurf1 by surface plasmon resonance (BIACORE T100). Format: binding. The note with it: 10 mM analyte over Smurf1 coupled to CM5 chip; FIG. 2A. The procedure:
In order to confirm the affinity between cell permeable peptide-bone differentiation inducing sequence conjugate and Smurf1 by a chemical method, a human-derived Smurf1 protein acting as a ligand in the present experiment was purchased from Origene Technologies (Rockville, Md., USA). The protein ([…]) was coupled to a gold coated surface of a CM5 chip (BIACORE AB, Sweden) on which amino groups are bounded using an EDC/NHS kit (BIACORE AB, Sweden). (Instead of this experimental method, ‘Immobilization’ integrated into the BIACORE® T100 (BIACORE AB, Sweden) software used by the present inventors may be used). In this case, in order to find a suitable pH condition at which the protein may bind to the amino group in the CM5 chip, a method called ‘pH scouting’ was performed, thereby finding a pH condition. As a method of ‘pH scouting’, a method integrated in the BIACORE® T100 (BIACORE AB, Sweden) software used by the present inventors may be used. […]

Ends that are not written are not given here.

With YGRKKRRQRRR [TAT, reference compound], in series [1], the “intracellular fluorescence after 20 minutes (confocal)” value is on record as “fluorescent materials uniformly present in cytoplasm were observed” and the “intracellular fluorescence after 80 minutes (confocal)” value is “fluorescent materials densely present up to in nucleus were confirmed”.
Regarding “GAPPPADSAP-NH2 [Comparative Example 2, GAPPPADSAP, reference compound]”, the “cytotoxicity (MTT, cell proliferation ability compared with PBS)” value in series [2] is recorded as “did not exhibit cytotoxicity”. Also, in series [3], the “effect on cell proliferation (BrdU, DNA synthesis ability compared with PBS)” value is on record as “did not affect the cell proliferation”.
Take “SSRKKNPNCRRH (H4S) [Comparative Example 1]”: the “affinity to Smurf1” value in series [4] was 100 RU. For the same substance, in series [1], the “intracellular fluorescence after 20 minutes (confocal)” value was “fluorescent materials uniformly present in cytoplasm were observed” and the “intracellular fluorescence after 80 minutes (confocal)” value is “fluorescent materials densely present up to in nucleus were confirmed”.
